From ChEMBL document CHEMBL3875144, “Novel fluorinated pyrrolomycins as potent anti-staphylococcal biofilm agents: Design, synthesis, pharmacokinetics and antibacterial activities” (Eur J Med Chem, 2016)
Converted amounts (≈) assume the structure as drawn. The source made the active and inactive calls. The rule behind the calls is not given here.

Tests used:
[1] = Antibacterial activity against methicillin-resistant Staphylococcus aureus USA300 JE2 incubated for 20 to 24 hrs by broth microdilution assay; type: functional, Staphylococcus aureus subsp. aureus USA300
[2] = Selectivity index, ratio of IC50 for cytotoxicity against human HeLa cells to MIC for antibacterial activity against methicillin-resistant Staphylococcus aureus USA300 JE2; type: toxicity, cell-based; details: read-out: Selectivity Index
[3] = Cytotoxicity against human HeLa cells assessed as decrease in cell viability measured after 24 hrs by MTS assay; type: toxicity, cell-based
[4] = Bactericidal activity against methicillin-resistant Staphylococcus aureus USA300 JE2 incubated up to 24 hrs; type: functional, Staphylococcus aureus subsp. aureus USA300; details: JE2, 24 h
[5] = tested on: Staphylococcus aureus subsp. aureus USA300; assay: Antibiofilm activity against methicillin-resistant Staphylococcus aureus USA300 JE2 at 32 ug/ml measured at 24 hrs post dose relative to control; type: functional
[6] = tested on: Staphylococcus aureus subsp. aureus USA300; assay: Antibiofilm activity against methicillin-resistant Staphylococcus aureus USA300 JE2 at 32 ug/ml measured at 48 hrs post dose relative to control; type: functional
[7] = tested on: Staphylococcus aureus subsp. aureus USA300; assay: Bactericidal activity against methicillin-resistant Staphylococcus aureus USA300 JE2 at 8 ug/ml incubated up to 24 hrs relative to control; type: functional
[8] = tested on: Staphylococcus aureus subsp. aureus USA300; assay: Antibiofilm activity against methicillin-resistant Staphylococcus aureus USA300 JE2 assessed as disruption of preformed biofilms at 8 ug/ml within 5 days; type: functional
[9] = tested on: Staphylococcus aureus subsp. aureus USA300; assay: Antibiofilm activity against methicillin-resistant Staphylococcus aureus USA300 JE2 at 8 ug/ml measured at 24 hrs post dose relative to control; type: functional
[10] = tested on: Staphylococcus aureus subsp. aureus USA300; assay: Antibiofilm activity against methicillin-resistant Staphylococcus aureus USA300 JE2 at 8 ug/ml measured at 48 hrs post dose relative to control; type: functional
[11] = Plasma concentration in Balc/c mouse at 1 mg/kg, iv up to 72 hrs by LC-MS/MS method; type: ADME, organism-based
[12] = Tmax in Balc/c mouse at 10 mg/kg administered via oral gavage by LC-MS/MS method; type: ADME, organism-based; details: in vivo
[13] = Plasma concentration in Balc/c mouse at 10 mg/kg administered via oral gavage up to 72 hrs by LC-MS/MS method; type: ADME, organism-based

SMILES	MIC [1] [µg/mL]	selectivity ratio [2]	IC50 at 24 h [3] [µM]	other results
O=C(c1ccc[nH]1)c1cc(F)cc(F)c1O	> 4	–	–	–
O=C(c1ccc[nH]1)c1cc(Cl)cc(Cl)c1O	> 4	–	–	–
Cn1c(Br)c(Br)c(Br)c1C(=O)c1cc(F)cc(F)c1O	> 4	–	–	–
O=C(c1cc(Cl)cc(Cl)c1O)c1[nH]c(F)c(Br)c1Br	0.19 (≈ 0.44 µM)	> 229	> 43.2	–
CN[C@H](CC(C)C)C(=O)N[C@H]1C(=O)N[C@@H](CC(N)=O)C(=O)N[C@H]2C(=O)N[C@H]3C(=O)N[C@H](C(=O)N[C@H](C(=O)O)c4cc(O)cc(O)c4-c4cc3ccc4O)[C@H](O)c3ccc(c(Cl)c3)Oc3cc2cc(c3O[C@@H]2O[C@H](CO)[C@@H](O)[C@H](O)[C@H]2O[C@H]2C[C@](C)(N)[C@H](O)[C@H](C)O2)Oc2ccc(cc2Cl)[C@H]1O [VANCOMYCIN]	2 (≈ 1.38 µM)	–	–	MBC [4]: 8 µg/mL (≈ 5.52 µM); Activity [5]: 11%; Activity [6]: 39%
O=C(c1cc(Br)c[nH]1)c1cc(Cl)cc(Cl)c1O	> 4	–	–	–
O=C(c1ccccc1O)c1[nH]c(Cl)c(Cl)c1-n1c(C(=O)c2cc(F)ccc2O)cc(Cl)c1Cl	0.19 (≈ 0.36 µM)	> 280	> 52.8	–
COc1c(F)cc(F)cc1C(=O)c1c(Br)c(Br)c(Br)n1C	> 4	–	–	–
O=C(c1cc(Br)c(Br)[nH]1)c1cc(Cl)cc(Cl)c1O	0.073 (≈ 0.176 µM)	> 567	> 41.4	MBC [4]: 8 µg/mL (≈ 19.3 µM); Activity [7]: 92.5%
COc1c(F)cc(F)cc1C(=O)c1ccc[nH]1	> 4	–	–	–
O=C(c1ccccc1O)c1[nH]c(Cl)c(Cl)c1-n1c(C(=O)c2ccc(Cl)cc2O)cc(Cl)c1Cl	0.078 (≈ 0.143 µM)	> 524	> 40.9	–
COc1c(F)cc(F)cc1C(=O)c1[nH]c(Br)c(Br)c1Br	3 (≈ 6.33 µM)	–	–	–
O=C(c1cc(Br)c(F)[nH]1)c1cc(Cl)cc(Cl)c1O	0.073 (≈ 0.207 µM)	> 484	> 35.3	Activity [8]: Active; MBC [4]: 4 µg/mL (≈ 11.3 µM); Activity [9]: 84%; Activity [10]: 97%; concentration at 72 h [11]: ≥ 0.8 ng/mL; Tmax [12]: 15 min; concentration at 72 h [13]: ≥ 0.8 ng/mL
O=C(c1cc(F)cc(F)c1O)c1[nH]c(Br)c(Br)c1Br	0.17 (≈ 0.37 µM)	> 275	> 46	–
